No end group written: not given here.
Key:
Assay in all cases: biochemical
DRB1*0901 = DRB1*0901 (Homo sapiens, UniProt P01903+P01911, A100R/A103E/D57H/D86V/F55Y/F60I/F76Y/I96F/K127E/L162R/M171V/P40D/Q125H/Q99R/R33Q/R42F/S133A/S66N/T210M/V115G/W38K/Y107V/Y59G/Y89S); format: binding
DRB1*1101 = DRB1*1101 (Homo sapiens, UniProt P01903+P01911, A100R/A169T/A87E/I96F/K41T/L162R/M171V/P40S/Q125H/Q178H/Q39Y/Q99D/R42S/S66Y/T262R/V115G/W38E)
DR7 (DRB1*0701) = DR7 (DRB1*0701) (Homo sapiens, UniProt P01903+P01911, A100R/A102G/A103Q/D57E/D86V/E43K/F76Y/K127E/L162R/M171V/P40G/Q125H/Q99D/R33Q/R42Y/R54Q/S133A/S66F/T210M/V115G/Y107V/Y59L/Y89S); format: binding
DRB4*0101 = DRB4*0101 (Homo sapiens, UniProt P01903+P13762, G164S); format: binding
DRB1*1501 = DRB1*1501 (Homo sapiens, UniProt P01903+P01911); format: binding
DR4w4 (DRB1*0401) = DR4w4 (DRB1*0401) (Homo sapiens, UniProt P01903+P01911, A100K/A169T/F76Y/I96L/K127E/L162R/M171V/N62H/P40V/Q125Y/R42H/S133A/S149N/S66Y/V115G/V209L/W38E); format: binding
DRB1*0301 = DRB1*0301 (Homo sapiens, UniProt P01903+P01911, A100K/A102G/A103R/A169T/F55Y/I96L/K41T/L162R/M171V/P40S/Q125H/Q178H/Q39Y/R42S/S66N/T106N/T262R/W38E/Y61H); format: binding
DRB5*0101 = DRB5*0101 (Homo sapiens, UniProt P01903+Q30154)
DRB1*0405 = DRB1*0405 (Homo sapiens, UniProt P01903+P01911, A100R/A169T/D86S/F76Y/I96L/K127E/L162R/M171V/N62H/P40V/Q125Y/R42H/S133A/S149N/S66Y/V115G/V209L/W38E); format: binding
DRB1*1201 = DRB1*1201 (Homo sapiens, UniProt P01903+P01911, A100R/A169T/D57E/D86V/F55L/H45Y/K41T/L162R/M171V/P40S/Q125H/Q178H/Q39Y/Q99D/R42G/S66L/T262R/V114A/V67L/W38E/Y59H/Y61H/Y89S); format: binding
DR1 (DRB1*0101) = DR1 (DRB1*0101) (Homo sapiens, UniProt P01903+P01911, A100R/D57E/F55L/F60I/F76Y/I96L/L162R/M171V/P40L/Q125E/R42F/V115G/Y59C); format: binding
DRB1*1302 = DRB1*1302 (Homo sapiens, UniProt P01903+P01911, A100E/A169T/K41T/L162R/M171V/P40S/Q125H/Q178H/Q39Y/Q99D/R42S/S66N/T262R/V115G/W38E/Y61H); format: binding
DRB1*0802 = DRB1*0802 (Homo sapiens, UniProt P01903+P01911, A100R/A103L/A169T/F76Y/H45Y/I96F/K41T/L162R/M171V/P40S/Q125H/Q178H/Q39Y/Q99D/R218S/R42G/S66Y/V115G/W38E); format: binding
DRB3*0101 = DRB3*0101 (Homo sapiens, UniProt P01903+P79483); format: binding

Sequence of DRB1*1302 (P01903 26-254 limits assumed, other chains not shown): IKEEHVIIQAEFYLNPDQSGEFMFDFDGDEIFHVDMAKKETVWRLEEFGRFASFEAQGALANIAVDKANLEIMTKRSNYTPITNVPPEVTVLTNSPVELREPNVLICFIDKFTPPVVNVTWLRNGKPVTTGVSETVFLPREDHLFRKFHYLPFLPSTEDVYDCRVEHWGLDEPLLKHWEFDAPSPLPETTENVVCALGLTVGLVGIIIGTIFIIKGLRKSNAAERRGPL
Sequence of DRB1*0301 (P01903 26-254 limits assumed, other chains not shown): as above
Sequence of DRB1*1101 (P01903 26-254 limits assumed, other chains not shown): as above

| Molecule | IC50 (DRB1*0901) [nM] | IC50 (DRB1*1101; Binding affinity DRB1 *1101) [nM] | IC50 (DR7 (DRB1*0701)) [nM] | IC50 (DRB4*0101) [nM] | IC50 (DRB1*1501) [nM] | IC50 (DR4w4 (DRB1*0401)) [nM] | IC50 (DRB1*0301) [nM] | IC50 (DRB5*0101; Binding affinity DRB5 *0101) [nM] | IC50 (DRB1*0405) [nM] | IC50 (DRB1*1201) [nM] | IC50 (DR1 (DRB1*0101)) [nM] | IC50 (DRB1*1302) [nM] | IC50 (DRB1*0802) [nM] | IC50 (DRB3*0101) [nM] | IC50 (DRB1*1101; DRB1*1101) [nM] | IC50 (DRB5*0101; DRB5*0101) [nM] |
| --- | --- | --- | --- | --- | --- | --- | --- | --- | --- | --- | --- | --- | --- | --- | --- | --- |
| ISEVMGDTPEWIQRL [Peptide 90.0052] | > 20000 | > 20000 | 4020 | 2040 | 6830 | > 20000 | 55 | > 20000 | 4110 | > 20000 | 2880 | 9 | > 20000 |  |  |  |
| RLTVAKLMSNLLSIP [Peptide 89.0065] | 994 | 62 | 45 | 4 | 9.5 | 6.2 | 4150 | 498 | 43 | 107 | 4.3 | 7.2 | 483 |  |  |  |
| GEIYIIEEDTCTMVT [Peptide 90.0202] | > 20000 | > 20000 | 6600 | 322 | > 20000 | 148 | 55 | > 20000 | 8110 | > 20000 | 1600 | 426 | > 20000 |  |  |  |
| FKKFLKGIPKKSCML [Peptide 89.0073] | 2480 | 64 | 2090 | 2220 | 508 | 452 | > 20000 | 66 | 17500 | 709 | 20 | 2660 | 320 |  |  |  |
| NGWFYVEAVIDRQTG [Peptide 90.0062] | 453 | 3350 | 157 | 14 | > 20000 | 69 | 241 | 558 | 12 | 4040 | 157 | 4870 | 3990 |  |  |  |
| CC[C@H](C)[C@H](NC(=O)CNC(=O)[C@H](Cc1ccc(O)cc1)NC(=O)[C@H](CC(C)C)NC(=O)[C@H](CO)NC(=O)[C@H](CC(C)C)NC(=O)[C@H](CC(C)C)NC(=O)[C@H](CO)NC(=O)[C@H](CC(C)C)NC(=O)[C@H](CCC(=O)O)NC(=O)[C@H](CO)NC(=O)[C@H](CC(C)C)NC(=O)[C@H](CCC(=O)O)NC(=O)[C@H](CCCNC(=N)N)NC(=O)[C@@H](N)CC(C)C)C(=O)O [Peptide 68.0043] |  |  |  |  |  |  |  |  |  |  |  |  |  | > 20000 |  |  |
| DWCVAAFGVTGTVAE [Peptide 89.0042] | 901 | 3230 | 349 | 601 | 64 | 294 | > 20000 | 8660 | 184 | > 20000 | 11 | > 20000 | 3500 |  |  |  |
| CC[C@H](C)[C@H](NC(=O)CNC(=O)[C@H](CCC(N)=O)NC(=O)[C@H](CC(C)C)NC(=O)[C@@H](NC(=O)CNC(=O)[C@H](CC(N)=O)NC(=O)[C@H](CS)NC(=O)[C@@H](NC(=O)[C@H](CC(C)C)NC(=O)[C@@H]1CCCN1C(=O)CNC(=O)CN)C(C)C)C(C)C)C(=O)N[C@H](C(=O)N[C@@H](CO)C(=O)O)[C@@H](C)O [Peptide 68.0079] |  |  | > 20000 |  | > 20000 |  |  |  |  |  |  |  |  | > 20000 |  |  |
| FQVIELQMALETLNA [Peptide 90.0025] | 1970 | 3990 | 2650 | 15 | 449 | 75 | 743 | > 20000 | 2490 | 708 | 20 | 187 | > 20000 |  |  |  |
| TPEWIQRLTIIQHGI [Peptide 89.0030] | 2430 | 389 | 155 | 6.8 | 17600 | 190 | > 20000 | 5890 | 204 | 418 | 669 | 413 | 374 |  |  |  |
| DYVLDLQPEATDLHC [Peptide 1543.10] | > 20000 | > 20000 | > 20000 | 69 | > 20000 | 35 | 11000 | > 20000 | 678 | 4880 | 5050 | > 20000 | > 20000 |  |  |  |
| CC[C@H](C)[C@H](NC(=O)[C@H](C)NC(=O)[C@H](CCCCN)NC(=O)[C@H](Cc1c[nH]cn1)NC(=O)[C@H](C)NC(=O)[C@H](CCCCN)NC(=O)[C@H](CO)NC(=O)[C@H](CCCCN)NC(=O)[C@H](CO)NC(=O)[C@@H](NC(=O)[C@H](CC(N)=O)NC(=O)[C@@H](NC(=O)[C@@H]1CCCN1)[C@@H](C)CC)[C@@H](C)CC)C(=O)N[C@@H](CCC(=O)O)C(=O)N[C@@H](CC(C)C)C(=O)O [Peptide 1601.30] |  |  |  |  |  |  |  |  |  |  |  |  |  | > 20000 |  |  |
| YIVMSDWTGGA [Peptide 510.33] |  |  |  |  |  |  |  |  |  |  |  |  |  | > 33300 | > 6670 | > 10000 |
| CC[C@H](C)[C@H](NC(=O)[C@H](Cc1c[nH]cn1)NC(=O)[C@H](CCSC)NC(=O)[C@H](CCCCN)NC(=O)[C@@H](NC(=O)[C@H](CCCCN)NC(=O)[C@H](CCC(N)=O)NC(=O)[C@@H](NC(=O)[C@H](CO)NC(=O)[C@H](Cc1ccccc1)NC(=O)[C@H](CC(N)=O)NC(=O)CNC(=O)[C@@H](N)[C@@H](C)O)[C@@H](C)O)C(C)C)C(=O)N[C@@H](Cc1c[nH]cn1)C(=O)N[C@@H](CO)C(=O)O [Peptide 68.0105] |  |  |  |  |  |  |  |  |  |  |  |  |  | > 20000 |  |  |
| EVHMENESIYCPDSV [Peptide 90.0238] | > 20000 | > 20000 | > 20000 | > 20000 | 516 | 5250 | 410 | > 20000 | > 20000 | > 20000 | 634 | 2370 | > 20000 |  |  |  |
| CC(C)C[C@H](NC(=O)[C@H](CC(=O)O)NC(=O)[C@H](CCCCN)NC(=O)[C@H](Cc1ccccc1)NC(=O)[C@H](C)NC(=O)[C@H](Cc1ccccc1)NC(=O)[C@H](CCC(=O)O)NC(=O)[C@H](Cc1ccccc1)NC(=O)[C@@H](NC(=O)[C@@H](N)CCC(=O)O)C(C)C)C(=O)N[C@@H](Cc1ccccc1)C(=O)N[C@H](C(=O)N[C@H](C(=O)N[C@@H](Cc1ccc(O)cc1)C(=O)N[C@@H](CCCNC(=N)N)C(=O)O)C(C)C)C(C)C [Peptide 1543.35] | > 20000 |  |  |  |  |  |  | > 20000 |  |  |  |  |  | > 20000 |  |  |
| QWAYDNDIVDDSEIA [Peptide 90.0036] | > 20000 | > 20000 | > 20000 | > 20000 | > 20000 | 11800 | 990 | > 20000 | 4260 | > 20000 | > 20000 | > 20000 | > 20000 |  |  |  |
